Measured values reported in US20130089504A1, “Compositions Comprising Enzyme-Cleavable Hydromorphone Prodrug” (priority 2010, published 2013).

Assays:
[1] = Pharmacokinetics of hydromorphone prodrug following IV administration to rats; assay type: in vivo; settings: male, Sprague Dawley; rat IV, PC-5 2 mg/kg (0.29 μmol/kg); plasma; read-out: PC-5 Cmax ± sd
[2] = In vivo tolerability of Compound PC-5 in rats (IV); settings: rat IV
Procedure: Male naïve Sprague-Dawley rats, 4 per dose, were used in the study. Rats were weighed, and then placed under a heat lamp for 15-20 minutes to dilate the lateral tail veins. Before dosing, rats were placed in Broome restrainers and the drug was introduced into one of the tail veins using a syringe and needle. […] Blood samples were collected 5 minutes post-dose via the saphenous vein. The rats were observed up to 24 hours.

[3] = In vitro stability of Compound PC-5 to household chemicals and enzyme preparations; assay type: physicochemical; settings: vodka, baking soda, WINDEX, vinegar at RT or 80° C.; GNC Super Digestive, tenderizer, subtilisn at RT; 1 or 24 hr
Procedure: Samples were incubated as described. Aliquots were removed at 1 hr and 24 hr and stabilized by transferring each to a solution of 50% or 100% phosphoric acid to achieve a final pH of less than or equal to pH 4. The stabilized aliquots were then diluted 4- to 6-fold with water, vortex-mixed and applied to HPLC.
The percentage of Compound PC-5 remaining after exposure is indicated by the solid black bars and percentage conversion of Compound PC-5 to hydromorphone is indicated by the lightly shaded bars with a black outline.

[4] = target: T1, trypsin (Bos taurus, UniProt P00760); test: In vitro trypsin conversion of prodrug Compound PC-5 to hydromorphone; assay type: biochemical; settings: no trypsin inhibitor
T1 construct: gene PRSS1
T1 sequence (P00760 24-246): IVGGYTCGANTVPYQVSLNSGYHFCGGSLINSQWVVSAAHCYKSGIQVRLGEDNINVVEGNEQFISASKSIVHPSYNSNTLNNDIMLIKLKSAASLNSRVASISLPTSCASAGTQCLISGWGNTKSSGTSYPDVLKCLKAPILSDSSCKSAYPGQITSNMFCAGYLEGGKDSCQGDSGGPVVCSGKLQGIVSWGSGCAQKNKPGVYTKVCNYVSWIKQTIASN
Procedure: Compound PC-5 was exposed to trypsin as described. […] A 5-minute 37° C. pre-incubation of the reaction mixture without prodrug was conducted and then the prodrug was added to initiate the incubation. The reaction was conducted at 37° C. for 24 hr.

CCN(CCNC(=O)[C@H](CCCCN)NC(=O)CC(=O)O)C(=O)Oc1ccc2c3c1O[C@H]1C(=O)CCC4[C@@H](C2)N(C)CC[C@@]341 (stereo partly drawn) [Compound PC-5, [2-((S)-2-malonylamino-6-amino-hexanoylamino)-ethyl]-ethyl-carbamic acid hydromorphone ester]
Cmax [1]: 3090 ± 360 ng/mL | dose rats can tolerate [2]: 9.7 µmol/kg | Clinical observations ([2]; 33 mg/kg ([…]), observed up to 24 hours): Normal | conversion of Compound PC-5 to hydromorphone [3]: less than 10% | trypsin-mediated release of hydromorphone ([4]; in vitro): trypsin can mediate release hydromorphone | Rate of HM formation, Average ± sd ([4]; 0.761 mM prodrug, 0.02 to 0.0228 mg/ml trypsin, Tris pH 8, 37° C.): 106 ± 2 umols/h/umol trypsin | half-life at 0.761 mM ([4]; 0.761 mM prodrug, 0.02 to 0.0228 mg/ml trypsin, Tris pH 8, 37° C., read-out: Prodrug trypsin half-life, Average ± sd (converted)): 2.81 ± 0.23 h
